This is an account of results in article PMC11595719, “Design of Ctenophore Ca^2+-Regulated Photoprotein Berovin Capable of Being Converted into Active Protein Under Physiological Conditions: Computational and Experimental Approaches” (Life, 2024).

The structures appear in SMILES notation.

Holding throughout (assay): Trp fluorescence quenching at […] nm
Assay type in all cases: binding

For assay [1], the target named is T1, berovin (apo-berovin, BAwt) (Beroe abyssicola, UniProt H8ZZK1, K90A/N107S).
T1 construct: gene BA2; monomeric

Assay [2] addresses T2, berovin (apo-berovin, BAwt) (Beroe abyssicola, UniProt H8ZZK1).
T2 construct: gene BA2; monomeric
T2 sequence (H8ZZK1 1-208): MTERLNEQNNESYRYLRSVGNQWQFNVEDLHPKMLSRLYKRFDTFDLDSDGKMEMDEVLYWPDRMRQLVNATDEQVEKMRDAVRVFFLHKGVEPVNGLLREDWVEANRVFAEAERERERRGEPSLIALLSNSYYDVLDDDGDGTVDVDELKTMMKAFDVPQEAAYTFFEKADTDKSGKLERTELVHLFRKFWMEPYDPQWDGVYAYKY

In assay [3] the target is T3, berovin (apo-berovin, BAwt) (Beroe abyssicola, UniProt H8ZZK1, K90M).
T3 construct: gene BA2; monomeric

The target of the next assay is T4, berovin (apo-berovin) (Beroe abyssicola, UniProt H8ZZK1, K90M/N107S/W103F).
T4 construct: gene BA2; monomeric
T4 sequence (H8ZZK1 entry or part of it K90M/W103F/N107S): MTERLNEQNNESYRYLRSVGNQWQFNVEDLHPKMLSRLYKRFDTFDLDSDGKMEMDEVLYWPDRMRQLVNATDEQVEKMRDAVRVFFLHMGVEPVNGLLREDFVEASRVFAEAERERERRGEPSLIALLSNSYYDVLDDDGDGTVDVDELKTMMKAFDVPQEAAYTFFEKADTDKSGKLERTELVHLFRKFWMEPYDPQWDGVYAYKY

T3 sequence (H8ZZK1 entry or part of it K90M): as the sequence (H8ZZK1 entry or part of it K90M/W103F/N107S) above, with F103W, S107N counted along it
T1 sequence (H8ZZK1 entry or part of it K90A/N107S): as the sequence (H8ZZK1 entry or part of it K90M/W103F/N107S) above, with M90A, F103W counted along it

The Kd is the constant that tells how readily two partners part at equilibrium. The low end stands for higher affinity, the high end for lower affinity. As for `Oc1ccc(Cc2nc3c(Cc4ccccc4)nc(-c4ccc(O)cc4)cn3c2O)cc1` [coelenterazine], the equilibrium dissociation constant (Kd) in assay [1] stood at 1.3 ± 0.15 µM; in assay [2], 4.72 ± 0.36 µM; in assay [3], 2.61 ± 0.28 µM; at berovin (apo-berovin), 6.62 ± 0.54 µM.
